Earlier results in US9974861B2, “Peptide slow-release formulations” (CAMURUS AB, priority 2007, dated 2018).

| Compound | Terminal half-life (in vivo) | Selectivity for SSTR2 and SSTR5 (SSTRs (SSTR1-SSTR5)) | Biological half-life (natural hormone) | Affinity of SSTR1-SSTR5 (SSTRs (SSTR1-SSTR5); five known types of SSTRs) |
| --- | --- | --- | --- | --- |
| C[C@@H](O)[C@@H]1NC(=O)[C@H](CCCCN)NC(=O)[C@@H](Cc2c[nH]c3ccccc23)NC(=O)[C@H](Cc2ccccc2)NC(=O)[C@@H](NC(=O)[C@H](N)Cc2ccccc2)CSSC[C@@H](C(=O)N[C@H](CO)[C@@H](C)O)NC1=O [Octreotide, D-Phe-Cys-Phe-D-Trp-Lys-Thr-Cys-Thr-ol (2-7 disulphide bridge)] | around 1.7 hours | high selectivity | – | – |
| Ala-Gly-Cys-Lys-Asn-Phe-Phe-Trp-Lys-Thr-Phe-Thr-Ser-Cys [SST-14] | – | – | 1-3 minutes | equally high affinity |
